Data from ChEMBL document CHEMBL1152066, “7,10-Bis(2-mercapto-2-methyl)propyl-7,10-diazapalmitic acid: a novel, N2S2 ligand for technetium-99m” (Bioorg Med Chem Lett, 1996).
Values joined by “and” are separate entries in the source; they are usually repeats but may differ in a detail not shown here. Equal values may be shown once.

Assays:
Format in all cases: ADME, organism-based
Conditions in all cases: in vivo
[1] = tested on: Rattus norvegicus; experiment: Distribution of radioactivity in heart of fasted rats following concomitant intravenous administration of [99mTc]-7. value expressed as % injected dose / organ
[2] = tested on: Rattus norvegicus; experiment: Distribution of radioactivity in kidney of fasted rats following concomitant intravenous administration of [99mTc]7. value expressed as % injected dose / organ
[3] = tested on: Rattus norvegicus; experiment: Distribution of radioactivity in lung of fasted rats following concomitant intravenous administration of [99mTc]7. value expressed as % injected dose / organ
[4] = tested on: Rattus norvegicus; experiment: Distribution of radioactivity in spleen of fasted rats following concomitant intravenous administration of [99mTc]-7. value expressed as % injected dose / organ
[5] = tested on: Rattus norvegicus; experiment: (§1) Distribution of radioactivity in stomach of fasted rats following concomitant intravenous administration of [99mTc]7. value expressed as % injected dose / organ
[6] = tested on: Rattus norvegicus; experiment: as §1; remark: listed apart in the source

Row | SMILES | Injected dose/organ [1] | Injected dose/organ [2] | Injected dose/organ [3] | Injected dose/organ [4] | Injected dose/organ [5] | Injected dose/organ [6]
1 | O=C(O)CCCCCCCCCCCCCCc1ccc([125I])cc1 | 1.86% and 2.94% | 2.07% and 0.71% | 1.25% and 0.77% | 0.54% and 0.57% | 0.42% | 0.27%
2 | CCCCCCN(CCN(CCCCCC(=O)O)CC(C)(C)S)CC(C)(C)S | 0.22% and 0.56% | 3.42% and 1.18% | 1.19% and 0.73% | 0.7% and 0.78% | – | 0.27% and 0.18%
